22 compounds from patent publication US20260152487A1 (Sitryx Therapeutics Limited, priority 2021, published 2026) can be followed below.

In assay [1] the target is T1, recombinant human PKM2 (Homo sapiens, UniProt P14618).
T1 construct: His (N); purchased R&D Systems
Nature of the assay: Human PKM2 activation assay (Kinase-Glo Plus luminescent detection of generated ATP). It counts as biochemical. The following applies: for Emax: percentage activation normalised to DMSO vehicle (LOW) and 5 μM TEPP-46 (HIGH), read-out: hPKM2 Emax; for EC50: recombinant human PKM2 activation, 4-parameter logistic fit, read-out: hPKM2 EC50. The method in brief:
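Luminescent ATP detection (Kinase-Glo Plus, 15 min, 26 °C) followed a 60 min, 26 °C shaken reaction of compound with […] His-tagged human PKM2, PEP and ADP in imidazole/KCl/MgCl2 buffer with Tween20 and BSA, pH 7.2.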

In assay [2] the test system is A549 cells. Nature of the assay: A549 cell proliferation in low-serine medium (CellTiter-Glo 2.0 viable cell number). It counts as cell-based. Conditions: Homo sapiens, 72 h, 3 days, Assay Medium with 20 μM L-serine. Here is the method: The effect of compounds of Formula (Ia) on A549 cell proliferation in low-serine medium was assessed using a luminescence assay of viable cell number (CellTiter-Glo® 2.0, Promega) duplexed with a fluorescent cytotoxicity assessment (CelITox™ Green, Promega). Cell culture reagents were from ThermoFisher unless specified otherwise. Assay reagents were from Sigma-Aldrich unless specified otherwise. Test Compounds were prepared as 10 mM DMSO stocks and dilution series prepared in DMSO for direct dilution into culture medium.
Cells were passaged every 3-4 days at 80-90% confluence. The cell monolayer was washed twice with room-temperature Ca^2+/Mg-free PBS and 4 ml room-temperature trypsin-EDTA added to the flask. After 5 minutes' incubation (37° C., 5% CO2) to detach cells, trypsin was quenched with 13 ml warmed complete growth medium and the cells harvested and diluted to 2.4×10^4 cells/ml for dispensing into 384-well clear-bottom black-walled plates (600 cells/well).
Following overnight incubation, growth medium was aspirated from each well and the cells washed twice with Assay Medium comprising Basal Medium Eagle supplemented with 3% heat-inactivated dialysed FBS plus 2 mM L-glutamine plus 20 μM L-serine (Sigma-Aldrich). After aspiration of the final wash medium, Assay Medium containing Test Compound was added to each well. DMSO vehicle controls were included on each plate.
Cells were incubated for 3 days in a humidified incubator (37° C., 5% CO2) at which point CelITox™ Green and CellTiter-Glo® reagents were prepared according to the manufacturer's instructions. Triton-X was added to HIGH wells for cytotoxicity determination and the plate incubated for 30 minutes (20° C., ambient humidity and pCO2). CelITox™ Green reagent was added to each well and the plate covered, placed on an orbital shaker @450 rpm for 2 minutes, and incubated in the dark for 15 minutes (20° C., ambient humidity and pCO2). Endpoint fluorescence was measured using a plate reader (PHERAstar® FSX, BMG Labtech).
Following cytotoxicity determination, CellTiter-Glo® reagent was added to each well and the plate placed on an orbital shaker @450 rpm for 2 minutes to lyse cells. Plates were incubated in the dark for 15-30 minutes (20° C., ambient humidity and pCO2) prior to endpoint luminescence measurement (PHERAstar® FSX, BMG Labtech).
Proliferation was calculated by normalizing luminescence signals to LOW controls obtained from a parallel plate processed at the time of Test Compound challenge and HIGH (DMSO vehicle) wells from the compound plate. IC50 values were determined from a 4-parameter logistic fit of compound concentration-response curves.

Assay [3] concerns the target T2, recombinant human PKLR (Homo sapiens, UniProt P30613).
T2 construct: His (N); purchased R&D Systems
Nature of the assay: Human PKLR activation assay (Kinase-Glo Plus luminescent detection of generated ATP). It counts as biochemical. The following applies: for EC50: activation of recombinant human PKLR, 4-parameter logistic fit, read-out: hPKLR EC50; for Emax: percentage activation normalised to DMSO vehicle (LOW) and 5 μM TEPP-46 (HIGH) controls, read-out: hPKLR Emax (%). Here is the method: Compound activation of recombinant human PKLR pyruvate kinase activity was determined by biochemical assay. N-terminal His-tagged enzyme was sourced from R&D Systems and its substrates phosphoenolpyruvate (PEP) and ADP from Sigma-Aldrich and 2Bscientific Ltd, respectively. The Kinase-Glo® Plus luminescence assay was from Promega. All other reagents were from Sigma-Aldrich. Test Compounds were prepared as 10 mM DMSO stocks and dilution series prepared in DMSO for direct dilution into Assay Buffer comprising 50 mM imidazole, 50 mM KCl, 7 mM MgCl2, 0.01% Tween20, 0.05% BSA (pH 7.2).
Human PKLR was diluted into Assay Buffer to a final concentration of 5 pM. Enzyme-Assay Buffer mix was dispensed into 384-well shallow-well white-walled plates and Test Compounds added by acoustic dispense (Echo®, Labcyte Inc).
After 60 minutes' incubation on an orbital shaker (300 rpm, 26° C.), enzyme activity was quantified by the luminescent detection of generated ATP. Kinase-Glo® Plus reagent was added to each well and the plates incubated for a further 15 minutes on an orbital shaker in the dark (300 rpm, 26° C.) before luminescence measurement on a plate reader (PHERAstar® FSX, BMG Labtech).
Percentage activation was calculated by normalising […] signals to plate LOW (DMSO vehicle) and HIGH (5 μM TEPP-46) controls. EC50 and Emax values were determined from 4-parameter logistic fits of compound concentration-response curves.

T2 sequence (P30613 whole entry): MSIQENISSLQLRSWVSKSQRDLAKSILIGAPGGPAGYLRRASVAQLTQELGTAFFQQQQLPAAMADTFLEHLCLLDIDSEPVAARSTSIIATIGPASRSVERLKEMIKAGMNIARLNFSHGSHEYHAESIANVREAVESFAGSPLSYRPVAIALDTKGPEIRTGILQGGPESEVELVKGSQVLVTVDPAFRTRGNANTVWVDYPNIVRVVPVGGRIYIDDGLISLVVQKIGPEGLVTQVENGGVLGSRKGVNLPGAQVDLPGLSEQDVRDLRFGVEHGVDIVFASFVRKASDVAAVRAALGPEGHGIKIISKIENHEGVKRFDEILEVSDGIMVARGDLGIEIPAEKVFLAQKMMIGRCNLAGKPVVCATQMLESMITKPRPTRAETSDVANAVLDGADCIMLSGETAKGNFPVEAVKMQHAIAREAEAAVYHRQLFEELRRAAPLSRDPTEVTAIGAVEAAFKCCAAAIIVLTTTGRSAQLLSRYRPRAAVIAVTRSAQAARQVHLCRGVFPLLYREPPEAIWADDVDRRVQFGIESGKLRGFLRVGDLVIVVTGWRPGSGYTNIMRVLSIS
T1 sequence (P14618 2-531 limits assumed): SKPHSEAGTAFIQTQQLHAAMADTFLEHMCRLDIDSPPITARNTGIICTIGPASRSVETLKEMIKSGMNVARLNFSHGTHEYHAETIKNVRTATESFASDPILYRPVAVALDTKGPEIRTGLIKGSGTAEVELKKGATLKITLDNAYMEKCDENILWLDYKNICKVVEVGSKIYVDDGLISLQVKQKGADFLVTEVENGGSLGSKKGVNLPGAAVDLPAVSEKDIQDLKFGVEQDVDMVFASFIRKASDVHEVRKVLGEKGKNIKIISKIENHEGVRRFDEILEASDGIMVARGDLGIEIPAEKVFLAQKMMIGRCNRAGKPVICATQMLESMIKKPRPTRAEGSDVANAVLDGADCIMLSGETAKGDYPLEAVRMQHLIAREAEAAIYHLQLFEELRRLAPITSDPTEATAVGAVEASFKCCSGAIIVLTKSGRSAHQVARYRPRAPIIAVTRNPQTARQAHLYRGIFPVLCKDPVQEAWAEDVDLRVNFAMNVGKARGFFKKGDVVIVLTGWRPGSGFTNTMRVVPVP

`COc1ccc(S(=O)(=O)c2ccc3c(=O)n(Cc4cccc5c4CCN5)ncc3c2)cc1` [Example 2, 2-(indolin-4-ylmethyl)-6-((4-methoxyphenyl)sulfonyl)phthalazin-1(2H)-one]: in assay [1], the maximal effect (Emax) was 97% and the EC50 was found to be 66.4 nM. This compound also came in with a 50% inhibitory concentration (IC50) in assay [2] of 0.8 nM.
Taken in the same sequence, the figures for `COc1ccc(S(=O)(=O)c2ccc3c(=O)n(Cc4cccn(C)c4=O)ncc3c2)cc1` [Example 4, 6-((4-methoxyphenyl)sulfonyl)-2-((1-methyl-2-oxo-1,2-dihydropyridin-3-yl)methyl)phthalazin-1(2H)-one] were 106%, 53.9 nM and 0.7 nM.
For `COc1ccc(S(=O)(=O)c2ccc3c(=O)n(Cc4cc[nH]n4)ncc3c2)cc1` [Example 6, 2-((1H-pyrazol-3-yl)methyl)-6-((4-methoxyphenyl)sulfonyl)phthalazin-1(2H)-one], in assay [1], the maximum response (Emax) worked out at 109% and the EC50 came out at 38.9 nM. The concentration for half-maximal inhibition (IC50) in assay [2] stood at 1.7 nM.
For `O=c1c2ccc(S(=O)(=O)c3ccccc3)cc2cnn1Cc1cncc(O)c1` [Example 7, 2-((5-hydroxypyridin-3-yl)methyl)-6-(phenylsulfonyl)phthalazin-1(2H)-one], in assay [1], the maximum response (Emax) was determined as 99.8% and the EC50 was 177 nM. Further, half-maximal inhibition in assay [2] (IC50) required 6.7 nM.
In the case of `COCC(c1ccc(OC)nc1)n1ncc2cc(S(=O)(=O)c3ccccc3)ccc2c1=O` (centres unmarked) [Example 8, 2-(2-methoxy-1-(6-methoxypyridin-3-yl)ethyl)-6-(phenylsulfonyl)phthalazin-1(2H)-one], in assay [1], the Emax was 80.8% and the 50% effective concentration (EC50) is 931 nM. This compound also showed an IC50 in assay [2] of 218 nM.
For `NC(=O)c1ncccc1Cn1ncc2cc(S(=O)(=O)c3ccccc3)ccc2c1=O` [Example 9, 3-((1-oxo-6-(phenylsulfonyl)phthalazin-2(1H)-yl)methyl)picolinamide] the same measures were 105%, 362 nM and 17.5 nM.
`O=c1c2ccc(S(=O)(=O)c3ccccc3)cc2cnn1Cc1ccn(CCO)n1` [Example 10, 2-((1-(2-hydroxyethyl)-1H-pyrazol-3-yl)methyl)-6-(phenylsulfonyl)phthalazin-1(2H)-one]: in assay [1], the Emax was 98.8% and the EC50 came to 166 nM. 7.8 nM corresponded to half-maximal inhibition in assay [2] (IC50).
For `CCn1ccc(Cn2ncc3cc(S(=O)(=O)c4ccccc4)ccc3c2=O)n1` [Example 11, 2-((1-ethyl-1H-pyrazol-3-yl)methyl)-6-(phenylsulfonyl)phthalazin-1(2H)-one] the same measures were 99%, 72.4 nM and 3.9 nM.
As to `Cc1c[nH]nc1Cn1ncc2cc(S(=O)(=O)c3ccccc3)ccc2c1=O` [Example 12, 2-((4-methyl-1H-pyrazol-3-yl)methyl)-6-(phenylsulfonyl)phthalazin-1(2H)-one], in assay [1], the Emax turned out to be 92% and the EC50 turned out to be 63.6 nM. In addition, it took 2.7 nM to reach half-maximal inhibition in assay [2] (IC50).
Turning to `NC(=O)c1sccc1Cn1ncc2cc(S(=O)(=O)c3ccccc3)ccc2c1=O` [Example 13, 3-((1-oxo-6-(phenylsulfonyl)phthalazin-2(1H)-yl)methyl)thiophene-2-carboxamide], in assay [1], the Emax was determined as 113% and the EC50 was found to be 117 nM. In addition, half-maximal inhibition in assay [2] (IC50) required 3.1 nM.
Consider `COc1ccc(S(=O)(=O)c2ccc3c(=O)n(Cc4ccnc(O)c4)ncc3c2)cc1` [Example 55, 2-((2-hydroxypyridin-4-yl)methyl)-6-((4-methoxyphenyl)sulfonyl)phthalazin-1(2H)-one], for which half-maximal inhibition in assay [2] (IC50) was put at 21.7 nM.
As for `O=c1c2ccc(S(=O)(=O)c3cnn(CCO)c3)cc2cnn1Cc1ccn(C2CC2)n1` [Example 272, 2-((1-cyclopropyl-1H-pyrazol-3-yl)methyl)-6-((1-(2-hydroxyethyl)-1H-pyrazol-4-yl)sulfonyl)phthalazin-1(2H)-one], in assay [1], the Emax is 91.3% and the half-maximal effective concentration (EC50) came out at 93.4 nM. Besides, in assay [3], the 50% effective concentration (EC50) is 39.1 nM and the maximum response (Emax) was determined as 124%.
Take `Cn1cc(S(=O)(=O)c2ccc3c(=O)n(Cc4cccc(C5CC5)n4)ncc3c2)cn1` [Example 275, 2-((6-cyclopropylpyridin-2-yl)methyl)-6-((1-methyl-1H-pyrazol-4-yl)sulfonyl)phthalazin-1(2H)-one]: in assay [1], the maximal effect (Emax) was 95.9% and the EC50 turned out to be 50.5 nM. In addition, in assay [3], the EC50 amounted to 19.5 nM and the Emax stood at 120%.
As for `O=c1c2ccc(S(=O)(=O)c3cn[nH]c3)cc2cnn1Cc1cccc(C2CC2)n1` [Example 287, 6-((1H-pyrazol-4-yl)sulfonyl)-2-((6-cyclopropylpyridin-2-yl)methyl)phthalazin-1(2H)-one], in assay [1], the Emax was found to be 103% and the 50% effective concentration (EC50) was 45.2 nM. In assay [3], the EC50 amounted to 13 nM and the maximum response (Emax) came to 110%.
As for `O=c1c2ccc(S(=O)(=O)c3cn[nH]c3)cc2cnn1Cc1ccc2occc2n1` [Example 298, 6-((1H-pyrazol-4-yl)sulfonyl)-2-(furo[3,2-b]pyridin-5-ylmethyl)phthalazin-1(2H)-one], the Emax in assay [1] stood at 108%; in assay [3], 118%. Besides, the values for the concentration for a half-maximal effect (EC50) in assay [1] and in assay [3] were 19.6 nM and 2.65 nM, respectively.
As for `O=c1c2ccc(S(=O)(=O)c3cnn(CCO)c3)cc2cnn1Cc1ccc2c(n1)CCO2` [Example 309], the EC50 in assay [1] turned out to be 50.4 nM; in assay [3], 6.58 nM.
For the compound `Cc1[nH]nc(Cn2ncc3cc(S(=O)(=O)c4cn[nH]c4)ccc3c2=O)c1Cl` [Example 314], the figures for the Emax in assay [1] and in assay [3] were 94.9% and 114%, respectively. The figures for the EC50 in assay [1] and in assay [3] were 46.3 nM and 4.27 nM, respectively.
In the case of `Cc1nc(S(=O)(=O)c2ccc3c(=O)n(Cc4cc[nH]n4)ncc3c2)cs1` [Example 320], in assay [1], the maximal response (Emax) was found to be 99.6% and the concentration for a half-maximal effect (EC50) came out at 120 nM. In assay [3], the concentration for a half-maximal effect (EC50) stood at 14.8 nM and the Emax was 131%.
Taken in the same sequence, the figures for `Cc1cc(F)c(Cn2ncc3cc(S(=O)(=O)c4cn[nH]c4)ccc3c2=O)nc1C` [Example 321] were 100%, 73.4 nM, 6.57 nM and 134%.
Consider `O=c1c2ccc(S(=O)(=O)c3cn[nH]c3)cc2cnn1Cc1cc2n(n1)CCO2` [Example 323], for which the EC50 turned out to be 50.5 nM in assay [1] and 6.44 nM in assay [3].
Take `CC(O)c1nc(S(=O)(=O)c2ccc3c(=O)n(Cc4ccc5c(n4)CCO5)ncc3c2)cs1` (centres unmarked) [Example 327]: in assay [1], the maximum response (Emax) was determined as 10% and the EC50 is 36.9 nM. Further, in assay [3], the 50% effective concentration (EC50) is 3.71 nM and the maximum response (Emax) was found to be 124%.
In assay [2], `O=C(c1ccc(NS(=O)(=O)c2cccc3cccnc23)cc1)N1CCN(CC2CC2)CC1` [Mitapivat, mitapivat, reference compound] registered an IC50 of 4.4 nM. This lies in the single-digit nanomolar range.
